Values of other authors as cited in patent publication US9044508B2, “Concentrated aqueous azalide formulations” (INSITE VISION CORPORATION, priority 2013, dated 2015).

Settings: aqueous formulation

## CC[C@H]1OC(=O)[C@H](C)[C@@H](O[C@H]2C[C@@](C)(OC)[C@@H](O)[C@H](C)O2)[C@H](C)[C@@H](O[C@@H]2O[C@H](C)C[C@H](N(C)C)[C@H]2O)[C@](C)(O)C[C@@H](C)CN(C)[C@H](C)[C@@H](O)[C@]1(C)O [azithromycin, N-methyl-1′-aza-10-deoxo-10-dihydroerythromycin]
  pH of maximum stability: about 6.3
